Source: ChEMBL document CHEMBL1142450, “3-(Imidazolyl methyl)-3-aza-bicyclo[3.1.0]hexan-6-yl)methyl ethers: a novel series of mGluR2 positive allosteric modulators” (Bioorg Med Chem Lett, 2008)

Experiments:
Type in all cases: ADME, organism-based
[1] = Oral bioavailability in Sprague-Dawley rat at 5 mg/kg; settings: in vivo
[2] = Ratio of drug level in brain to plasma in Sprague-Dawley rat at 10 mg/kg, sc; parameters: dose 10 mg/kg, route subcutaneous; settings: brain and plasma, read-out: BPR
[3] = Fraction absorbed in Sprague-Dawley rat at 5 mg/kg, po; parameters: dose 5 mg/kg, route oral; settings: in vivo, read-out: Fabs

Row | bioavailability [1] | Kp [2] | Fa [3] | SMILES
1 | < 2% | 2 | 5% | Cn1c(CN2C[C@@H]3C(COc4ccccc4)[C@@H]3C2)nc2ccccc21 (stereo partly drawn)
2 | 20% |  | 72% | Cn1c(CN2C[C@@H]3C(COc4ccc(Cl)cn4)[C@@H]3C2)nc2ccccc21 (stereo partly drawn)
3 | 27% |  |  | Cn1c(CN2C[C@@H]3C(COc4ccc(C(F)(F)F)cn4)[C@@H]3C2)nc2ccccc21 (stereo partly drawn)
4 | 79% |  | 84% | Cn1c(CN2C[C@@H]3C(COc4cccc(Cl)c4)[C@@H]3C2)nc2ncccc21 (stereo partly drawn)
